Test results as given in paper PMC5517430, “2,3,7,8-Tetrachlorodibenzo-p-dioxin (TCDD)-elicited effects on bile acid homeostasis: Alterations in biosynthesis, enterohepatic circulation, and microbial metabolism” (Scientific Reports, 2017).

Test system: hepatic gene expression
Assay: Hepatic RNA-Seq differential gene expression (fold change, P1(t), ED50, BMD, BMDL)
Type: in vivo, mouse
Description: Frozen ileal epithelium scrapings and liver samples were homogenized in TRIzol (Ambion, Waltham, MA) using a Mixer Mill 300 tissue homogenizer (Retsch, Germany) and total RNA was isolated as previously described. RNA was quantified using a Nano-drop spectrophotometer (Thermo Scientific, Wilmington, DE) at 260 nm, and purity was assessed using the A260/A280 ratio and the Caliper LabChip GX (Perkin Elmer, Waltham, MA).
Dose-dependent gene expression was examined using RNA-Seq performed at the MSU Research Technology Support Facility (RTSF) Genomics Core (rtsf.natsci.msu.edu/genomics). Ileal libraries from three independent biological replicates (n = 3) were prepared using the Ovation Mouse RNA-Seq System 1–16 sample preparation kit (NuGen, San Carlos, CA), with an additional DNase step. Libraries were quantified and sequenced as previously described, using a read depth of ~30 M per sample[33], [67]. Quality was determined using FASTQC v0.11.3 and adaptor sequences were removed using Trimmomatic v0.33. Reads were mapped to the mouse reference genome (GRCm38 release 81) using Bowtie2 v2.2.6 and TopHat2 v2.1.0. Alignments were converted to SAM format using SAMTools v1.2.0. For TCDD-mediated differential gene expression, fold changes were calculated relative to vehicle controls. Hepatic RNA-Seq analysis was previously published. Genes were considered differentially expressed if |fold change| ≥ 1.5 and statistical P1(t) value ≥ 0.8 at one or more doses. RNA-Seq datasets for the ileal epithelium and liver were deposited in the Gene Expression Omnibus (GEO; accession number GSE89430 and GSE87519, respectively). The RNA-Seq results (fold changes, P1(t) values) for each gene discussed in the manuscript have been compiled in Supplementary Table S1. […] Estimation of benchmark dose (BMD) and BMD lower confidence limit (BMDL) was performed using BMDExpress[69] as previously described, and has been included in Supplementary Table S1.

[1] = liver, 0.01 µg/kg TCDD, relative to vehicle control
[2] = liver, 0.03 µg/kg TCDD, relative to vehicle control
[3] = liver, 0.1 µg/kg TCDD, relative to vehicle control
[4] = liver, 0.3 µg/kg TCDD, relative to vehicle control
[5] = liver, 1 µg/kg TCDD, relative to vehicle control
[6] = liver, 3 µg/kg TCDD, relative to vehicle control
[7] = liver, 10 µg/kg TCDD, relative to vehicle control
[8] = liver, 30 µg/kg TCDD, relative to vehicle control
[9] = male mice, 30 µg/kg TCDD every 4 d for 28 d
[10] = male mice, TCDD every 4 d for 28 d

## Clc1cc2c(cc1Cl)Oc1cc(Cl)c(Cl)cc1O2 [TCDD, 2,3,7,8-tetrachlorodibenzo-p-dioxin]
liver
  Slc6a6 (TAUT) BMD: 11.24 µg/kg TCDD
  Slc6a6 (TAUT) BMDL: 8.25 µg/kg TCDD
  Slc6a6 (TAUT) Differentially Expressed?: YES
  Slc6a6 (TAUT) ED50: 13.27 µg/kg TCDD
  Slc10a1 (NTCP or LBAT) BMD: 9.13 µg/kg TCDD
  Slc10a1 (NTCP or LBAT) BMDL: 4.73 µg/kg TCDD
  Slc10a1 (NTCP or LBAT) Differentially Expressed?: YES
  Slc10a1 (NTCP or LBAT) ED50: 14.43 µg/kg TCDD
  Slc27a5 BMD: 4.42 µg/kg TCDD
  Slc27a5 BMDL: 3.04 µg/kg TCDD
  Slc27a5 Differentially Expressed?: YES
  Slc27a5 ED50: 11.65 µg/kg TCDD
  Slco1a1 (OATP1A1) BMD: 8.64 µg/kg TCDD
  Slco1a1 (OATP1A1) BMDL: 3.68 µg/kg TCDD
  Slco1a1 (OATP1A1) Differentially Expressed?: YES
  Slco1a1 (OATP1A1) ED50: 10.06 µg/kg TCDD
  Slco1a4 (OATP1A4) BMD: 0.56 µg/kg TCDD
  Slco1a4 (OATP1A4) BMDL: 0.000105 µg/kg TCDD
  Slco1a4 (OATP1A4) Differentially Expressed?: YES
  Slco1a4 (OATP1A4) ED50: Not sigmoidal
  Slco1b2 (OATP1B2) BMD: 6.99 µg/kg TCDD
  Slco1b2 (OATP1B2) BMDL: 4.27 µg/kg TCDD
  Slco1b2 (OATP1B2) Differentially Expressed?: YES
  Slco1b2 (OATP1B2) ED50: 12.87 µg/kg TCDD
  Slco2b1 (OATP2B1) BMD: 4.52 µg/kg TCDD
  Slco2b1 (OATP2B1) BMDL: 2.69 µg/kg TCDD
  Slco2b1 (OATP2B1) Differentially Expressed?: YES
  Slco2b1 (OATP2B1) ED50: 11.16 µg/kg TCDD
  Soat1 BMD: No model fit
  Soat1 BMDL: No model fit
  Soat1 Differentially Expressed?: YES
  Soat1 ED50: 8.88 µg/kg TCDD
  Soat2 BMD: 7.18 µg/kg TCDD
  Soat2 BMDL: 5.55 µg/kg TCDD
  Soat2 Differentially Expressed?: YES
  Soat2 ED50: Not sigmoidal
  Sqle BMD: No model fit
  Sqle BMDL: No model fit
  Sqle Differentially Expressed?: YES
  Sqle ED50: 19.37 µg/kg TCDD
  Srebf2 BMD: 8.52 µg/kg TCDD
  Srebf2 BMDL: 4.75 µg/kg TCDD
  Srebf2 Differentially Expressed?: YES
  Srebf2 ED50: 15.74 µg/kg TCDD
  Sult2a8 BMD: 1.73 µg/kg TCDD
  Sult2a8 BMDL: 1.40 µg/kg TCDD
  Sult2a8 Differentially Expressed?: YES
  Sult2a8 ED50: 11.63 µg/kg TCDD
  Tm7sf2 BMD: 14.47 µg/kg TCDD
  Tm7sf2 BMDL: 11.85 µg/kg TCDD
  Tm7sf2 Differentially Expressed?: YES
  Tm7sf2 ED50: 17.41 µg/kg TCDD
[1]
  Slc6a6 (TAUT) FC_0.01: 0.98
  Slc10a1 (NTCP or LBAT) FC_0.01: 1.06
  Slc27a5 FC_0.01: 0.96
  Slco1a1 (OATP1A1) FC_0.01: 1.85
  Slco1a4 (OATP1A4) FC_0.01: 0.83
  Slco1b2 (OATP1B2) FC_0.01: 0.99
  Slco2b1 (OATP2B1) FC_0.01: 1.02
  Soat1 FC_0.01: 0.61
  Soat2 FC_0.01: 1.08
  Sqle FC_0.01: 1.57
  Srebf2 FC_0.01: 1.04
  Sult2a8 FC_0.01: 1.07
  Tm7sf2 FC_0.01: 1.06
[2]
  Slc6a6 (TAUT) FC_0.03: 0.99
  Slc10a1 (NTCP or LBAT) FC_0.03: 1.13
  Slc27a5 FC_0.03: 0.89
  Slco1a1 (OATP1A1) FC_0.03: 1.27
  Slco1a4 (OATP1A4) FC_0.03: 0.81
  Slco1b2 (OATP1B2) FC_0.03: 1.11
  Slco2b1 (OATP2B1) FC_0.03: 0.97
  Soat1 FC_0.03: 0.71
  Soat2 FC_0.03: 1.02
  Sqle FC_0.03: 1.40
  Srebf2 FC_0.03: 1.10
  Sult2a8 FC_0.03: 1.00
  Tm7sf2 FC_0.03: 0.92
[3]
  Slc6a6 (TAUT) FC_0.1: 1.04
  Slc10a1 (NTCP or LBAT) FC_0.1: 0.87
  Slc27a5 FC_0.1: 0.83
  Slco1a1 (OATP1A1) FC_0.1: 0.82
  Slco1a4 (OATP1A4) FC_0.1: 0.42
  Slco1b2 (OATP1B2) FC_0.1: 1.02
  Slco2b1 (OATP2B1) FC_0.1: 0.91
  Soat1 FC_0.1: 1.03
  Soat2 FC_0.1: 1.01
  Sqle FC_0.1: 1.57
  Srebf2 FC_0.1: 1.00
  Sult2a8 FC_0.1: 0.89
  Tm7sf2 FC_0.1: 0.82
[4]
  Slc6a6 (TAUT) FC_0.3: 1.15
  Slc10a1 (NTCP or LBAT) FC_0.3: 1.02
  Slc27a5 FC_0.3: 0.88
  Slco1a1 (OATP1A1) FC_0.3: 1.03
  Slco1a4 (OATP1A4) FC_0.3: 0.87
  Slco1b2 (OATP1B2) FC_0.3: 1.08
  Slco2b1 (OATP2B1) FC_0.3: 0.92
  Soat1 FC_0.3: 0.85
  Soat2 FC_0.3: 1.22
  Sqle FC_0.3: 2.08
  Srebf2 FC_0.3: 1.06
  Sult2a8 FC_0.3: 0.81
  Tm7sf2 FC_0.3: 1.05
[5]
  Slc6a6 (TAUT) FC_1: 1.28
  Slc10a1 (NTCP or LBAT) FC_1: 1.21
  Slc27a5 FC_1: 0.86
  Slco1a1 (OATP1A1) FC_1: 1.33
  Slco1a4 (OATP1A4) FC_1: 0.45
  Slco1b2 (OATP1B2) FC_1: 1.13
  Slco2b1 (OATP2B1) FC_1: 1.01
  Soat1 FC_1: 0.53
  Soat2 FC_1: 1.23
  Sqle FC_1: 1.92
  Srebf2 FC_1: 0.99
  Sult2a8 FC_1: 0.89
  Tm7sf2 FC_1: 0.89
[6]
  Slc6a6 (TAUT) FC_3: 1.14
  Slc10a1 (NTCP or LBAT) FC_3: 1.09
  Slc27a5 FC_3: 0.81
  Slco1a1 (OATP1A1) FC_3: 1.24
  Slco1a4 (OATP1A4) FC_3: 0.40
  Slco1b2 (OATP1B2) FC_3: 0.92
  Slco2b1 (OATP2B1) FC_3: 0.90
  Soat1 FC_3: 0.77
  Soat2 FC_3: 1.08
  Sqle FC_3: 1.74
  Srebf2 FC_3: 0.93
  Sult2a8 FC_3: 0.65
  Tm7sf2 FC_3: 1.24
[7]
  Slc6a6 (TAUT) FC_10: 1.16
  Slc10a1 (NTCP or LBAT) FC_10: 0.56
  Slc27a5 FC_10: 0.48
  Slco1a1 (OATP1A1) FC_10: 0.0276
  Slco1a4 (OATP1A4) FC_10: 0.46
  Slco1b2 (OATP1B2) FC_10: 0.65
  Slco2b1 (OATP2B1) FC_10: 0.40
  Soat1 FC_10: 1.16
  Soat2 FC_10: 0.80
  Sqle FC_10: 2.07
  Srebf2 FC_10: 0.85
  Sult2a8 FC_10: 0.12
  Tm7sf2 FC_10: 0.97
[8]
  Slc6a6 (TAUT) FC_30: 1.84
  Slc10a1 (NTCP or LBAT) FC_30: 0.056
  Slc27a5 FC_30: 0.06
  Slco1a1 (OATP1A1) FC_30: 0.000843
  Slco1a4 (OATP1A4) FC_30: 0.40
  Slco1b2 (OATP1B2) FC_30: 0.13
  Slco2b1 (OATP2B1) FC_30: 0.08
  Soat1 FC_30: 3.59
  Soat2 FC_30: 0.51
  Sqle FC_30: 0.23
  Srebf2 FC_30: 0.37
  Sult2a8 FC_30: 0.00374
  Tm7sf2 FC_30: 0.0549
[9]
  Fgfr4 hepatic expression, fold repression: 4.7 fold
  Hmgcr hepatic expression: no significant induction
  Klb hepatic expression, fold repression: 8.1 fold
  Srebf2 hepatic expression, fold repression: 2.7 fold
Male mice, 0.3–10 µg/kg TCDD every 4 d for 28 d
  Hmgcr hepatic expression, max fold induction: 3.4 fold
[10]
  Abcb11 hepatic expression, fold repression: 4.7 fold
  Abcc2 hepatic expression: unchanged
  Akr1c6 hepatic expression, fold repression: 22.1 fold
  Akr1d1 hepatic expression, fold repression: 16.3 fold
  Amacr hepatic expression, fold repression: 3.3 fold
  Baat hepatic expression, fold repression: 12.0 fold
  Cdo1 hepatic expression, fold repression: 2.7 fold
  Ch25h hepatic expression, fold induction: 6.1 fold
  Csad hepatic expression, fold repression: 4.5 fold
  Cyp3a11 hepatic expression, fold repression: 4.9 fold
  Cyp3a13 hepatic expression, fold repression: 17.0 fold
  Cyp3a16 hepatic expression, fold repression: 5.2 fold
  Cyp3a25 hepatic expression, fold repression: 6.0 fold
  Cyp3a44 hepatic expression, fold repression: 3.0 fold
  Cyp3a57 hepatic expression, fold repression: 2.4 fold
  Cyp3a59 hepatic expression, fold repression: 4.4 fold
  Cyp7a1 hepatic expression, fold repression: 39.7 fold
  Cyp7b1 hepatic expression, fold repression: 7.6 fold
  Cyp8b1 hepatic expression, fold repression: 4.4 fold
  Cyp27a1 hepatic expression, fold repression: 2.4 fold
  Cyp46a1 hepatic expression, fold repression: 2.1 fold
  Hsd3b7 hepatic expression, fold repression: 2.5 fold
  Nr0b2 hepatic expression, fold repression: 22.2 fold
  Nr1h4 hepatic expression, fold repression: 3.2 fold
  Scp2 hepatic expression, fold repression: 3.4 fold
  Slc10a1 hepatic expression, fold repression: 17.9 fold
  Slc27a5 hepatic expression, fold repression: 16.0 fold
  Slco1a1 hepatic expression, fold repression: 1186.3 fold
  Slco1a4 hepatic expression, fold repression: 2.5 fold
  Slco1b2 hepatic expression, fold repression: 7.9 fold
  Slco2b1 hepatic expression, fold repression: 12.9 fold
  Sult2a8 hepatic expression, fold repression: 267.5 fold
